Reference: patent US11541055B2, “Inhibitors of human immunodeficiency virus replication” (ViiV Healthcare UK (No. 5) LIMITED, priority 2018, dated 2023)

Assays:
[1] = system: recombinant NL4-3 virus (Renilla luciferase) in MT-2 cells; experiment: HIV cell culture assay (antiviral activity, luciferase readout); format: cell-based; conditions: Renilla, NL43
Summary of the method: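 MT-2 cells were infected with recombinant NL4-3 virus carrying Renilla luciferase in place of part of nef. Cells were cultured 4–5 days with serially diluted compound, and luciferase was measured with a live-cell substrate. EC50 was calculated from the median effect equation.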

[2] = Compound cytotoxicity, XTT-based colorimetric assay; format: cell-based; conditions: human; uninfected MT2 cells, day 4, XTT
Summary of the method: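 Run under the antiviral-assay protocol but without virus. Viability was read on day 4 and CC50 values were derived from the readout.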

SMILES | EC50 [1] [nM] | CC50 at 4 days [2] [nM]
Cc1cc(C(F)(F)F)cc(-c2ccc3c(=O)n(-c4ccc(Cl)c5c(NS(C)(=O)=O)nn(C)c45)c([C@H](Cc4cc(F)cc(F)c4)NC(=O)Cn4nc(C(F)F)c5c4C(F)(F)[C@@H]4C[C@H]54)nc3c2)n1 (atropisomer, axis not shown; (P)) [Example 48, N—((S)-1-((3P)-3-(4-chloro-1-methyl-3-(methylsulfonamido)-1H-indazol-7-yl)-7-(6-methyl-4-(trifluoromethyl)pyridin-2-yl)-4-oxo-3,4-dihydroquinazolin-2-yl)-2-(3,5-difluorophenyl)ethyl)-2-((3bS,4aR)-3-(difluoromethyl)-5,5-difluoro-3b,4,4a,5-tetrahydro-1H-cyclopropa[3,4]cyclopenta[1,2-c]pyrazol-1-yl)acetamide] | 0.5 | > 500
CS(=O)(=O)Nc1nn(CC(F)F)c2c(-n3c([C@H](Cc4cc(F)cc(F)c4)NC(=O)Cn4nc(C(F)F)c5c4C(F)(F)[C@@H]4C[C@H]54)nc4cc(-c5nccc(C(F)(F)F)n5)ccc4c3=O)ccc(Cl)c12 (atropisomer, axis not shown) [Example 128, N-[(1S)-1-{3-[4-chloro-1-(2,2-difluoroethyl)-3-methanesulfonamido-1H-indazol-7-yl]-4-oxo-7-[4-(trifluoromethyl)pyrimidin-2-yl]-3,4-dihydroquinazolin-2-yl}-2-(3,5-difluorophenyl)ethyl]-2-[(2S,4R)-9-(difluoromethyl)-5,5-difluoro-7,8-diazatricyclo[4.3.0.0^2,^4]nona-1(6),8-dien-7-yl]acetamide] | 0.079 | > 500
Cn1nc(NS(C)(=O)=O)c2c(Cl)ccc(-n3c([C@H](Cc4cc(F)cc(F)c4)NC(=O)Cn4nc(C(F)F)c5c4C(F)(F)[C@@H]4C[C@H]54)nc4cc(-c5cccc(S(=O)(=O)C(C)(C)C)c5)ccc4c3=O)c21 (atropisomer, axis not shown; (P)) [Example 33, N—((S)-1-(7-(3-(tert-butylsulfonyl)phenyl)-(3P)-3-(4-chloro-1-methyl-3-(methylsulfonamido)-1H-indazol-7-yl)-4-oxo-3,4-dihydroquinazolin-2-yl)-2-(3,5-difluorophenyl)ethyl)-2-((3bS,4aR)-3-(difluoromethyl)-5,5-difluoro-3b,4,4a,5-tetrahydro-1H-cyclopropa[3,4]cyclopenta[1,2-c]pyrazol-1-yl)acetamide] | 0.12 | > 500
CN(c1ccccc1-c1ccc2c(=O)n(-c3ccc(Cl)c4c(NS(=O)(=O)C5CC5)nn(CC(F)F)c34)c([C@H](Cc3cc(F)cc(F)c3)NC(=O)Cn3nc(C(F)F)c4c3C(F)(F)[C@@H]3C[C@H]43)nc2c1)S(C)(=O)=O (atropisomer, axis not shown) [Example 144] | 0.18 | > 500
Cc1ncc(C)c(-c2ccc3c(=O)n(-c4ccc(Cl)c5c(NS(C)(=O)=O)nn(C)c45)c([C@H](Cc4cc(F)cc(F)c4)NC(=O)Cn4nc(C(F)F)c5c4C(F)(F)[C@@H]4C[C@H]54)nc3c2)n1 (atropisomer, axis not shown; (P)) [Example 77, N—((S)-1-((3P)-3-(4-chloro-1-methyl-3-(methylsulfonamido)-1H-indazol-7-yl)-7-(2,5-dimethylpyrimidin-4-yl)-4-oxo-3,4-dihydroquinazolin-2-yl)-2-(3,5-difluorophenyl)ethyl)-2-((3bS,4aR)-3-(difluoromethyl)-5,5-difluoro-3b,4,4a,5-tetrahydro-1H-cyclopropa[3,4]cyclopenta[1,2-c]pyrazol-1-yl)acetamide] | 0.071 | > 500
